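1) Cells in 96-well plates. 2) Compound, 48 h, 5 concentrations. 3) Linear interpolation between surrounding doses. 4) Unreached endpoint = highest concentration. GI50 is the concentration that inhibits growth by half.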 The source made the active and inactive calls. Cut-off read from the data, not from the text of the source: active = GI50 up to about 1.1 µM and inactive = higher.
How the values were obtained:
Assay in all cases: DTP human tumour cell line panel, 48 h
UACC-257 = system: UACC-257
HT-29 = system: HT-29
U-251 = system: U-251
A549 = system: A549
OVCAR-4 = system: OVCAR-4
XF498 = system: XF498
CCRF-CEM = system: CCRF-CEM
RPMI-8226 = system: RPMI-8226
HOP-18 = system: HOP-18
SNB-75 = system: SNB-75
HCT-116 = system: HCT-116
SK-MEL-28 = system: SK-MEL-28
COLO 205 = system: COLO 205
UACC-62 = system: UACC-62
UO-31 = system: UO-31
K562 = system: K562
LXFL 529 = system: LXFL 529
NCI-H23 = system: NCI-H23
SF-295 = system: SF-295
NCI-H460 = system: NCI-H460
KM-20L2 = system: KM-20L2
DMS-114 = system: DMS-114
M14 = system: M14
OVCAR-3 = system: OVCAR-3
NCI-H522 = system: NCI-H522
A498 = system: A498
HCT-15 = system: HCT-15
SNB-19 = system: SNB-19
ACHN = system: ACHN
RXF 631 = system: RXF 631
HOP-92 = system: HOP-92
786-0 = system: 786-0
SK-MEL-5 = system: SK-MEL-5
EKVX = system: EKVX
CAKI-1 = system: CAKI-1
SF-268 = system: SF-268
SK-OV-3 = system: SK-OV-3
DMS-273 = system: DMS-273
HL-60 = system: HL-60
SK-MEL-2 = system: SK-MEL-2
SF-539 = system: SF-539
RXF 393 = system: RXF 393
LOX IMVI = system: LOX IMVI
Malme-3M = system: Malme-3M
SW-620 = system: SW-620
SN12C = system: SN12C
TK-10 = system: TK-10
OVCAR-5 = system: OVCAR-5
MOLT-4 = system: MOLT-4
OVCAR-8 = system: OVCAR-8
DLD-1 = system: DLD-1
IGROV-1 = system: IGROV-1
HOP-62 = system: HOP-62
HCC 2998 = system: HCC 2998
M19-MEL = system: M19-MEL
KM12 = system: KM12
SNB-78 = system: SNB-78
SR = system: SR
NCI-H226 = system: NCI-H226

## COC(=O)CCC(=O)NC1C2CC3CC(C2)CC1C3 (stereo unspecified)
UACC-257
  GI50: > 100 µM (inactive)
HT-29
  GI50: > 100 µM (inactive)
U-251
  GI50: > 100 µM (inactive)
A549
  GI50: > 100 µM (inactive)
OVCAR-4
  GI50: > 100 µM (inactive)
XF498
  GI50: > 100 µM (inactive)
CCRF-CEM
  GI50: > 100 µM (inactive)
RPMI-8226
  GI50: > 100 µM (inactive)
HOP-18
  GI50: > 100 µM (inactive)
SNB-75
  GI50: > 43.1 µM (inactive)
HCT-116
  GI50: > 100 µM (inactive)
SK-MEL-28
  GI50: > 100 µM (inactive)
COLO 205
  GI50: > 100 µM (inactive)
UACC-62
  GI50: > 100 µM (inactive)
UO-31
  GI50: > 100 µM (inactive)
K562
  GI50: > 100 µM (inactive)
LXFL 529
  GI50: > 100 µM (inactive)
NCI-H23
  GI50: > 100 µM (inactive)
SF-295
  GI50: > 100 µM (inactive)
NCI-H460
  GI50: > 100 µM (inactive)
KM-20L2
  GI50: > 100 µM (inactive)
DMS-114
  GI50: > 100 µM (inactive)
M14
  GI50: > 100 µM (inactive)
OVCAR-3
  GI50: > 100 µM (inactive)
NCI-H522
  GI50: > 100 µM (inactive)
A498
  GI50: > 100 µM (inactive)
HCT-15
  GI50: > 100 µM
SNB-19
  GI50: > 100 µM (inactive)
ACHN
  GI50: > 100 µM (inactive)
RXF 631
  GI50: > 100 µM (inactive)
HOP-92
  GI50: > 100 µM (inactive)
786-0
  GI50: > 100 µM (inactive)
SK-MEL-5
  GI50: > 100 µM (inactive)
EKVX
  GI50: > 100 µM (inactive)
CAKI-1
  GI50: > 100 µM (inactive)
SF-268
  GI50: > 100 µM (inactive)
SK-OV-3
  GI50: > 100 µM (inactive)
DMS-273
  GI50: > 100 µM (inactive)
HL-60
  GI50: > 100 µM (inactive)
SK-MEL-2
  GI50: > 100 µM (inactive)
SF-539
  GI50: > 100 µM (inactive)
RXF 393
  GI50: > 100 µM (inactive)
LOX IMVI
  GI50: > 100 µM (inactive)
Malme-3M
  GI50: > 100 µM (inactive)
SW-620
  GI50: > 100 µM (inactive)
SN12C
  GI50: > 100 µM (inactive)
TK-10
  GI50: > 100 µM (inactive)
OVCAR-5
  GI50: > 100 µM (inactive)
MOLT-4
  GI50: > 100 µM (inactive)
OVCAR-8
  GI50: > 100 µM (inactive)
DLD-1
  GI50: > 100 µM (inactive)
IGROV-1
  GI50: > 100 µM (inactive)
HOP-62
  GI50: > 100 µM (inactive)
HCC 2998
  GI50: > 100 µM (inactive)
M19-MEL
  GI50: > 100 µM (inactive)
KM12
  GI50: > 100 µM (inactive)

## CCOC(=O)Cn1c2ccccc2c(=O)c2cc(C)c(C)c(C#N)c21
SNB-78
  GI50: > 100 µM (inactive)
UACC-257
  GI50: > 100 µM (inactive)
HT-29
  GI50: > 100 µM (inactive)
U-251
  GI50: > 100 µM (inactive)
A549
  GI50: > 100 µM (inactive)
XF498
  GI50: 30.2 µM (inactive)
CCRF-CEM
  GI50: > 100 µM (inactive)
RPMI-8226
  GI50: > 100 µM (inactive)
HOP-18
  GI50: > 100 µM (inactive)
SNB-75
  GI50: 23.2 µM (inactive)
HCT-116
  GI50: 53.5 µM (inactive)
SK-MEL-28
  GI50: > 100 µM (inactive)
COLO 205
  GI50: > 100 µM (inactive)
UACC-62
  GI50: > 100 µM (inactive)
UO-31
  GI50: 68.5 µM (inactive)
LXFL 529
  GI50: > 100 µM (inactive)
NCI-H23
  GI50: > 100 µM (inactive)
SF-295
  GI50: 40.4 µM (inactive)
NCI-H460
  GI50: > 100 µM (inactive)
KM-20L2
  GI50: > 100 µM (inactive)
SR
  GI50: > 100 µM (inactive)
OVCAR-3
  GI50: > 100 µM (inactive)
HCT-15
  GI50: > 100 µM
SNB-19
  GI50: > 100 µM (inactive)
ACHN
  GI50: > 100 µM (inactive)
RXF 631
  GI50: > 100 µM (inactive)
HOP-92
  GI50: 21.8 µM (inactive)
786-0
  GI50: > 100 µM (inactive)
NCI-H226
  GI50: > 100 µM (inactive)
EKVX
  GI50: > 100 µM (inactive)
SF-268
  GI50: > 100 µM (inactive)
SK-OV-3
  GI50: 55.5 µM (inactive)
DMS-273
  GI50: > 100 µM (inactive)
HL-60
  GI50: > 100 µM (inactive)
SK-MEL-2
  GI50: > 100 µM (inactive)
SF-539
  GI50: > 100 µM (inactive)
RXF 393
  GI50: 63.7 µM (inactive)
LOX IMVI
  GI50: > 100 µM (inactive)
Malme-3M
  GI50: > 100 µM (inactive)
SW-620
  GI50: > 100 µM (inactive)
SN12C
  GI50: > 100 µM (inactive)
TK-10
  GI50: > 100 µM (inactive)
OVCAR-5
  GI50: > 100 µM (inactive)
MOLT-4
  GI50: > 100 µM (inactive)
OVCAR-8
  GI50: 84.3 µM (inactive)
DLD-1
  GI50: > 100 µM (inactive)
IGROV-1
  GI50: > 100 µM (inactive)
HOP-62
  GI50: 40.7 µM (inactive)
HCC 2998
  GI50: > 100 µM (inactive)
M19-MEL
  GI50: > 100 µM (inactive)
